Here are results for four compounds from patent US11034650B2, “Compounds useful for treating a Mannheimia haemolytica or Histophilus somni infection” (Intervet Inc., priority 2016, dated 2021).

Converted amounts (≈) assume the structure as drawn.

The first assay relates to Pasteurella multocida PM 10775 (080130003051, BRD field isolate). Kind of assay: MIC, broth-microdilution (CLSI VET01-A4), strain PM 10775. Particulars: Pasteurella multocida strain PM 10775, broth-microdilution; unit assumed. It is filed as cell-based. In outline: (§1)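 Serial twofold dilutions; unaided-eye turbidity scoring; lowest clear well = MIC.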
`CCCNCc1ccc(C#Cc2ccc(C(=O)N[C@@H](CO)C(=O)NO)cc2)cc1` [Compound 152] gave an MIC PM 10775 of 0.2 µg/mL (≈ 0.506 µM).

Take `CSC(C)(C)[C@H](NC(=O)c1ccc(C#Cc2ccc(CNC3CCCC3)cc2)cc1)C(=O)NO` [Compound 244]: the MIC PM 10775 was determined as 0.2 µg/mL (≈ 0.417 µM).

For the compound `CC(=O)C(NC(=O)c1ccc(C#Cc2ccc(CN3CCCC3)cc2)cc1)C(=O)NO` (stereo not shown) [Compound 403], the MIC PM 10775 amounted to 6.3 µg/mL (≈ 15 µM).

Consider `COCCNCc1ccc(C#Cc2ccc(C(=O)N[C@H](C(=O)NO)C(C)(C)S(C)(=O)=O)cc2)s1` [C.313], for which the MIC PM 10775 was not above 0.1 µg/mL.

For a further assay, the system named is Mannheimia haemolytica MH 13093 (XB0472-6014.1, BRD field isolate). Put plainly: MIC, broth-microdilution (CLSI VET01-A4), strain MH 13093. It is filed as cell-based. The conditions noted are these: Mannheimia haemolytica strain MH 13093, broth-microdilution; unit assumed. In outline: as §1
Regarding `CCCNCc1ccc(C#Cc2ccc(C(=O)N[C@@H](CO)C(=O)NO)cc2)cc1` [Compound 152], the MIC MH 13093 is 12.5 µg/mL (≈ 31.6 µM).

With `CSC(C)(C)[C@H](NC(=O)c1ccc(C#Cc2ccc(CNC3CCCC3)cc2)cc1)C(=O)NO` [Compound 244], the MIC MH 13093 came out at 6.3 µg/mL (≈ 13.1 µM).

As to `CC(=O)C(NC(=O)c1ccc(C#Cc2ccc(CN3CCCC3)cc2)cc1)C(=O)NO` (stereo not shown) [Compound 403], the MIC MH 13093 amounted to 25 µg/mL (≈ 59.6 µM).

As to `COCCNCc1ccc(C#Cc2ccc(C(=O)N[C@H](C(=O)NO)C(C)(C)S(C)(=O)=O)cc2)s1` [C.313], the MIC MH 13093 came to 0.8 µg/mL (≈ 1.58 µM).

In a further assay the test system is Mannheimia haemolytica MH 6357 (M7/2, reference strain, cattle infection strain). Kind of assay: MIC, broth-microdilution (CLSI VET01-A4), strain MH 6357. The conditions noted are these: Mannheimia haemolytica strain MH 6357, broth-microdilution; unit assumed. It is filed as cell-based. An outline of the steps: as §1
`CCCNCc1ccc(C#Cc2ccc(C(=O)N[C@@H](CO)C(=O)NO)cc2)cc1` [Compound 152] gave an MIC MH 6357 of 3.1 µg/mL (≈ 7.84 µM).

Regarding `CSC(C)(C)[C@H](NC(=O)c1ccc(C#Cc2ccc(CNC3CCCC3)cc2)cc1)C(=O)NO` [Compound 244], the MIC MH 6357 stood at 3.1 µg/mL (≈ 6.46 µM).

`CC(=O)C(NC(=O)c1ccc(C#Cc2ccc(CN3CCCC3)cc2)cc1)C(=O)NO` (stereo not shown) [Compound 403] yielded an MIC MH 6357 of 25 µg/mL (≈ 59.6 µM).

The compound `COCCNCc1ccc(C#Cc2ccc(C(=O)N[C@H](C(=O)NO)C(C)(C)S(C)(=O)=O)cc2)s1` [C.313] had an MIC MH 6357 of 0.4 µg/mL (≈ 0.788 µM).

Another assay has as its system Mannheimia haemolytica MH 10720 (154, BRD field isolate). Kind of assay: MIC, broth-microdilution (CLSI VET01-A4), strain MH 10720. It is filed as cell-based. The conditions noted are these: Mannheimia haemolytica strain MH 10720, broth-microdilution; unit assumed. An outline of the steps:
as §1
As for `CCCNCc1ccc(C#Cc2ccc(C(=O)N[C@@H](CO)C(=O)NO)cc2)cc1` [Compound 152], the MIC MH 10720 was determined as 3.1 µg/mL (≈ 7.84 µM).

In turn, `CSC(C)(C)[C@H](NC(=O)c1ccc(C#Cc2ccc(CNC3CCCC3)cc2)cc1)C(=O)NO` [Compound 244] registered an MIC MH 10720 of 1.6 µg/mL (≈ 3.34 µM).

In turn, `CC(=O)C(NC(=O)c1ccc(C#Cc2ccc(CN3CCCC3)cc2)cc1)C(=O)NO` (stereo not shown) [Compound 403] returned an MIC MH 10720 of 12.5 µg/mL (≈ 29.8 µM).

As to `COCCNCc1ccc(C#Cc2ccc(C(=O)N[C@H](C(=O)NO)C(C)(C)S(C)(=O)=O)cc2)s1` [C.313], the MIC MH 10720 was not above 0.1 µg/mL.

The subject of a further assay is Pasteurella multocida PM 6267 (P 2225 (L386), reference strain, mouse infection strain). Kind of assay: MIC, broth-microdilution (CLSI VET01-A4), strain PM 6267. It is filed as cell-based. Particulars: Pasteurella multocida strain PM 6267, broth-microdilution; unit assumed. In outline: as §1
`CCCNCc1ccc(C#Cc2ccc(C(=O)N[C@@H](CO)C(=O)NO)cc2)cc1` [Compound 152] gave an MIC PM 6267 of 1.6 µg/mL (≈ 4.05 µM).

For the compound `CSC(C)(C)[C@H](NC(=O)c1ccc(C#Cc2ccc(CNC3CCCC3)cc2)cc1)C(=O)NO` [Compound 244], the MIC PM 6267 stood at 0.4 µg/mL (≈ 0.834 µM).

The compound `CC(=O)C(NC(=O)c1ccc(C#Cc2ccc(CN3CCCC3)cc2)cc1)C(=O)NO` (stereo not shown) [Compound 403] registered an MIC PM 6267 of 100 µg/mL (≈ 238 µM).

Regarding `COCCNCc1ccc(C#Cc2ccc(C(=O)N[C@H](C(=O)NO)C(C)(C)S(C)(=O)=O)cc2)s1` [C.313], the MIC PM 6267 turned out to be 0.2 µg/mL (≈ 0.394 µM).

Another assay relates to Mannheimia haemolytica MH 6374 (ATCC 33396, reference strain). Put plainly: MIC, broth-microdilution (CLSI VET01-A4), strain MH 6374. It is filed as cell-based. The conditions noted are these: Mannheimia haemolytica strain MH 6374, broth-microdilution; unit assumed. An outline of the steps: as §1
Compound `CCCNCc1ccc(C#Cc2ccc(C(=O)N[C@@H](CO)C(=O)NO)cc2)cc1` [Compound 152] had an MIC MH 6374 of 25 µg/mL (≈ 63.2 µM).

Regarding `CSC(C)(C)[C@H](NC(=O)c1ccc(C#Cc2ccc(CNC3CCCC3)cc2)cc1)C(=O)NO` [Compound 244], the MIC MH 6374 worked out at 6.3 µg/mL (≈ 13.1 µM).

`CC(=O)C(NC(=O)c1ccc(C#Cc2ccc(CN3CCCC3)cc2)cc1)C(=O)NO` (stereo not shown) [Compound 403] returned an MIC MH 6374 of 12.5 µg/mL (≈ 29.8 µM).

The compound `COCCNCc1ccc(C#Cc2ccc(C(=O)N[C@H](C(=O)NO)C(C)(C)S(C)(=O)=O)cc2)s1` [C.313] displayed an MIC MH 6374 of 1.6 µg/mL (≈ 3.15 µM).

The next assay relates to Pasteurella multocida PM 12080 (IV102277-0093, BRD field isolate). Put plainly: MIC, broth-microdilution (CLSI VET01-A4), strain PM 12080. It is filed as cell-based. Particulars: Pasteurella multocida strain PM 12080, broth-microdilution; unit assumed. An outline of the steps:
as §1
On to `CCCNCc1ccc(C#Cc2ccc(C(=O)N[C@@H](CO)C(=O)NO)cc2)cc1` [Compound 152], for which the MIC PM 12080 turned out to be 3.1 µg/mL (≈ 7.84 µM).

`CSC(C)(C)[C@H](NC(=O)c1ccc(C#Cc2ccc(CNC3CCCC3)cc2)cc1)C(=O)NO` [Compound 244] displayed an MIC PM 12080 of 0.8 µg/mL (≈ 1.67 µM).

In turn, `CC(=O)C(NC(=O)c1ccc(C#Cc2ccc(CN3CCCC3)cc2)cc1)C(=O)NO` (stereo not shown) [Compound 403] displayed an MIC PM 12080 of 3.1 µg/mL (≈ 7.39 µM).

As for `COCCNCc1ccc(C#Cc2ccc(C(=O)N[C@H](C(=O)NO)C(C)(C)S(C)(=O)=O)cc2)s1` [C.313], the MIC PM 12080 is not above 0.1 µg/mL.

The next assay has as its system Pasteurella multocida PM 6391 (ATCC 43137, reference strain). Put plainly: MIC, broth-microdilution (CLSI VET01-A4), strain PM 6391. It is filed as cell-based. Particulars: Pasteurella multocida strain PM 6391, broth-microdilution; unit assumed. In outline: as §1
Regarding `CCCNCc1ccc(C#Cc2ccc(C(=O)N[C@@H](CO)C(=O)NO)cc2)cc1` [Compound 152], the MIC PM 6391 came out at 6.3 µg/mL (≈ 15.9 µM).

With `CSC(C)(C)[C@H](NC(=O)c1ccc(C#Cc2ccc(CNC3CCCC3)cc2)cc1)C(=O)NO` [Compound 244], the MIC PM 6391 was determined as 1.6 µg/mL (≈ 3.34 µM).

Compound `CC(=O)C(NC(=O)c1ccc(C#Cc2ccc(CN3CCCC3)cc2)cc1)C(=O)NO` (stereo not shown) [Compound 403] had an MIC PM 6391 of 0.8 µg/mL (≈ 1.91 µM).

Take `COCCNCc1ccc(C#Cc2ccc(C(=O)N[C@H](C(=O)NO)C(C)(C)S(C)(=O)=O)cc2)s1` [C.313]: the MIC PM 6391 was not above 0.1 µg/mL.

For the next assay, the system named is Mannheimia haemolytica MH 12587 (1071, BRD field isolate, macrolide-resistance: erm+, E+). Kind of assay: MIC, broth-microdilution (CLSI VET01-A4), strain MH 12587. It is filed as cell-based. Particulars: Mannheimia haemolytica strain MH 12587, broth-microdilution; unit assumed. An outline of the steps: as §1
In the case of `CCCNCc1ccc(C#Cc2ccc(C(=O)N[C@@H](CO)C(=O)NO)cc2)cc1` [Compound 152], the MIC MH 12587 is 12.5 µg/mL (≈ 31.6 µM).

In the case of `CSC(C)(C)[C@H](NC(=O)c1ccc(C#Cc2ccc(CNC3CCCC3)cc2)cc1)C(=O)NO` [Compound 244], the MIC MH 12587 worked out at 6.3 µg/mL (≈ 13.1 µM).

The compound `CC(=O)C(NC(=O)c1ccc(C#Cc2ccc(CN3CCCC3)cc2)cc1)C(=O)NO` (stereo not shown) [Compound 403] yielded an MIC MH 12587 of 6.3 µg/mL (≈ 15 µM).

Consider `COCCNCc1ccc(C#Cc2ccc(C(=O)N[C@H](C(=O)NO)C(C)(C)S(C)(=O)=O)cc2)s1` [C.313], for which the MIC MH 12587 amounted to 1.6 µg/mL (≈ 3.15 µM).

For the next assay, the system named is Mannheimia haemolytica MH 13065 (XB0446-6003.9, BRD field isolate). Kind of assay: MIC, broth-microdilution (CLSI VET01-A4), strain MH 13065. Particulars: Mannheimia haemolytica strain MH 13065, broth-microdilution; unit assumed. It is filed as cell-based. An outline of the steps: as §1
Compound `CCCNCc1ccc(C#Cc2ccc(C(=O)N[C@@H](CO)C(=O)NO)cc2)cc1` [Compound 152] returned an MIC MH 13065 of 12.5 µg/mL (≈ 31.6 µM).

`CSC(C)(C)[C@H](NC(=O)c1ccc(C#Cc2ccc(CNC3CCCC3)cc2)cc1)C(=O)NO` [Compound 244] gave an MIC MH 13065 of 3.1 µg/mL (≈ 6.46 µM).

In turn, `CC(=O)C(NC(=O)c1ccc(C#Cc2ccc(CN3CCCC3)cc2)cc1)C(=O)NO` (stereo not shown) [Compound 403] displayed an MIC MH 13065 of 25 µg/mL (≈ 59.6 µM).

`COCCNCc1ccc(C#Cc2ccc(C(=O)N[C@H](C(=O)NO)C(C)(C)S(C)(=O)=O)cc2)s1` [C.313] showed an MIC MH 13065 of 0.4 µg/mL (≈ 0.788 µM).
